Assays:
[1] = test system: healthy male mammal post-puberty (man); assay: Male contraception by oral administration to man; type: in vivo
Protocol: A 60 kg. Person who is the admitted parent of 2 children is given one 50 mg. tablet daily of 17β-methoxy-2α-methyl-5α-androstan-3-one.
A 60 kg. Person is treated daily with one teaspoonful of a suspension of 2α,3α-epithio-17β-ethoxy-5α-androstane (100 mg./ml.).

[2] = test system: rat ABP (androgen binding protein) and rat AR (androgen receptor); assay: ABP/AR ratio: relative affinity (vs DHT) for rat ABP and rat AR; details: ratio of relative affinity for rat ABP to relative affinity for rat AR, each compared to DHT
Excerpt: The present invention includes steroids which have a high affinity for rat ABP (androgen binding protein) as compared to DHT (dihydrotestosterone, 17β-hydroxy-5α-androst-3-one). N. A. Musto et al. in Endo. Res. Comm. 4, 147 (1977) have described a procedure for isolation and purification of rat ABP. Utilizing the purified rat ABP, and following the procedure of E. M. Ritzen et al. described in J. Biol. Chem. 249, 6597 (1974), the relative affinity of various non-estrogenic-type steroids can readily be determined. The dissociation constant (Kd) measures the affinity of a compound for a protein. The dissociation constant for DHT and the non-estrogenic-type steroids is determined. […]
E. M. Wilson and F. S. French in the J. Biol. Chem. 251, 5620 (1976) have described a procedure for isolation and partial purification of rat AR. Utilizing the rat AR and following the procedure of G. Verhoeven et al. described in Steroids 26, 149 (1975) the relative affinity of various steroids can readily be determined. The dissociation constant for DHT and non-estrogenic steroids is determined. […] D. J. Tindall, et al., in the International Journal of Andrology, Supplement 2 (1978) set forth the preferred method for determining the relative affinities of a steroid for ABP and AR from which the ABP/AR ratio can be calculated. […]

[3] = test system: tom; assay: Male contraception by daily treat given to tom; type: in vivo, tom (cat)
Protocol: A 6 kg. tom who has previously sired offspring is given a treat daily containing 20 mg. of 17β-methoxy-2α-methyl-5α-androstan-3-one. […] Eighty days following cessation of administration of the treat, the tom, upon sexual intercourse, fertilizes the same ovulating female at the time of her estrus.

[4] = test system: men; details: cited from earlier work
[5] = test system: normal men; details: six normal men; Morse et al., J. Clin. Endocrinol. Metab. 37, 882 (1973); cited from earlier work

Question: Which results are given for `CCO[C@H]1CC[C@H]2[C@@H]3CC[C@H]4C[C@@H]5S[C@@H]5C[C@]4(C)[C@H]3CC[C@]12C` [2α,3α-epithio-17β-ethoxy-5α-androstane]?
Answer: fertilization of a fertile female following sexual intercourse ([1]; Example 5: 60 one teaspoonful daily of suspension (100 mg./ml.), after 60 days): does not fertilize; fertility on further administration ([1]; Example 5: further administration): remains infertile

Question: For `CO[C@H]1CC[C@H]2[C@@H]3CC[C@H]4C[C@@H]5S[C@@H]5C[C@]4(C)[C@H]3CC[C@]12C` [2α,3α-epithio-17β-methoxy-5α-androstane], which “fertilization of a fertile female following sexual intercourse” value ([1]; Example 3: 70 one-half teaspoonful/day of elixir (100 mg./ml.), after 60 days) is on record?
Answer: The value was “does not fertilize”.

Question: And the “fertility on continued administration” value ([1]; Example 3: continued daily elixir)?
Answer: Its value is “remains infertile”.

Question: Which ABP/AR ratio [2] does the source give for `C[C@@H]1C[C@@]2(C)C(=CC1=O)C[C@@H](C)[C@H]1[C@@H]3CC[C@H](O)[C@@]3(C)CC[C@@H]12` [2α,7α-dimethyltestosterone] here?
Answer: The ABP/AR ratio was “about 6.0”.

Question: For `CO[C@H]1CC[C@H]2[C@@H]3CC[C@H]4CC(=O)[C@H](C)C[C@]4(C)[C@H]3CC[C@]12C` [17β-methoxy-2α-methyl-5α-androstan-3-one], which “fertilization of an ovulating female at estrus following sexual intercourse” value ([3]; Example 6: 6 kg tom, treat with 20 mg daily, after 60 days) is on record?
Answer: Its value is “does not fertilize”.

Question: What about the “fertility on continuous daily administration” value ([3]; Example 6: continued daily treat) of the same compound?
Answer: The value was “remains infertile”.

Question: And the “fertilization of the same ovulating female after cessation (reversibility)” value ([3]; Example 6: eighty days following cessation of the treat)?
Answer: The value was “fertilizes”.

Question: What about the “fertilization of a fertile female following sexual intercourse” value ([1]; Example 1: 70 10 mg tablet twice daily for about 100 days) of the same compound?
Answer: Its value is “does not fertilize”.

Question: What about the “fertility on continued administration” value ([1]; Example 1: continued twice daily) of the same compound?
Answer: Its value is “remains infertile”.

Question: What about the “fertilization of a fertile female following sexual intercourse” value ([1]; Example 2: 80 200 mg capsule four times daily for 60 days) of the same compound?
Answer: The value was “does not fertilize”.

Question: What about the “fertility on continued administration” value ([1]; Example 2: continued 4 times daily) of the same compound?
Answer: Its value is “remains infertile”.

Question: And the “fertility on continued administration” value ([1]; Example 4: continued daily)?
Answer: The value was “remains infertile”.

Question: Which results are given for `CCCCCCC(=O)O[C@H]1CC[C@H]2[C@@H]3CCC4=CC(=O)CC[C@]4(C)[C@H]3CC[C@]12C` [testosterone enanthate]?
Answer: effect on sperm in men who acknowledged paternity ([4]; Steinberger et al., Fertility and Sterility 27, 216 (1976)): azoospermia; sperm count ([4]; seven men, Mauss et al., Acta. Endocrinol. 78, 373 (1975)): less than 3,000,000 sperm/ml

Question: Which results are given for `CCC(=O)O[C@H]1CC[C@H]2[C@@H]3CCC4=CC(=O)CC[C@]4(C)[C@H]3CC[C@]12C` [testosterone propionate]?
Answer: sperm concentration [5]: sharp drop; testicular testosterone [5]: decrease
